Here are results for 11 compounds from ChEMBL document CHEMBL4130597 (ACS Med Chem Lett, 2017).

The target in one experiment is Protease (Human immunodeficiency virus 1, UniProt Q9YQ12). The experiment can be described thus: Inhibition of HIV1 protease expressed in Escherichia coli using Val-Ser-Gln-Asn-(beta-naphtyl)Ala-Pro-Ile-Val as substrate preincubated for 30 mins followed by substrate addition measured after 1 hr by mass spectrometric method.
Experiment [1] has as its system Human immunodeficiency virus 1. Briefly: Antiviral activity against HIV1 infected in GFP expressing human MT4 cells assessed as inhibition of viral replication after 24 hrs in presence of 50% normal human serum. Format: functional, organism-based. The settings on record: Human immunodeficiency virus 1, MT4, 24 h.
Experiment [2] deals with Protease (Human immunodeficiency virus 1) (UniProt Q9YQ12). The experiment can be described thus: Potency index, ratio of MK-8718 IC50 to test compound IC50 for HIV1 protease.
The subject of experiment [3] is Human immunodeficiency virus 1. Briefly: Potency index, ratio of MK-8718 EC50 to test compound EC50 for HIV1 infected in GFP expressing human MT4 cells assessed as inhibition of viral replication. Format: functional.

Protease, sequence (Q9YQ12 whole entry): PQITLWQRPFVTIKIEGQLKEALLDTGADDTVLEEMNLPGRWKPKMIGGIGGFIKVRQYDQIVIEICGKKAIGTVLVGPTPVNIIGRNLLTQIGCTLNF
Protease (Human immunodeficiency virus 1), sequence (Q9YQ12 as listed by the source): as the sequence (Q9YQ12 whole entry) above

With `N[C@H](C(=O)Nc1cncc(F)c1CC[C@H]1CN[C@@H]2CCCS(=O)(=O)N1C2)[C@@H](c1ccc(Cl)cc1)c1cc(F)cc(F)c1`, half-maximal inhibition against Protease (IC50) was put at 0.012 nM. In addition, in experiment [1], the EC50 (commonly the concentration giving half of the maximal effect) was 2.8 nM. For the same compound, the Ratio IC50 in experiment [2] was 60. For the same compound, in experiment [3], the “Ratio EC50” value is 10.

With `O=C(CC(c1ccc(F)cc1)c1ccc(F)cc1)Nc1cccc(F)c1CC[C@H]1CNCCN1S(=O)(=O)c1ccccc1`, the EC50 in experiment [1] was 27 nM.

As for `O=C(CC(c1ccc(F)cc1)c1ccc(F)cc1)Nc1cccc(F)c1CC[C@@H]1CNCCN1S(=O)(=O)c1ccccc1`, the EC50 in experiment [1] was 1200 nM.

For the compound `C[C@H]1CNC[C@H](CCc2c(F)cccc2NC(=O)CC(c2ccc(F)cc2)c2ccc(F)cc2)N1S(=O)(=O)c1ccccc1`, the half-maximal effective concentration (EC50) in experiment [1] was found to be 17 nM.

As to `C[C@@H]1CN(S(=O)(=O)c2ccccc2)[C@@H](CCc2c(F)cccc2NC(=O)CC(c2ccc(F)cc2)c2ccc(F)cc2)CN1`, the EC50 in experiment [1] came to 520 nM.

Consider `CC(C)CN(C[C@@H](O)[C@H](Cc1ccccc1)NC(=O)O[C@H]1CO[C@H]2OCC[C@H]21)S(=O)(=O)c1ccc(N)cc1`, for which the EC50 in experiment [1] was 7 nM.

As for `C[C@H]1CN(S(=O)(=O)c2ccccc2)[C@@H](CCc2c(F)cccc2NC(=O)CC(c2ccc(F)cc2)c2ccc(F)cc2)CN1`, in experiment [1], the EC50 was 700 nM.

Consider `COC(=O)N[C@H](C(=O)N[C@@H](Cc1ccccc1)[C@@H](O)CN(Cc1ccc(-c2ccccn2)cc1)NC(=O)[C@@H](NC(=O)OC)C(C)(C)C)C(C)(C)C` [ATAZANAVIR], for which, in experiment [1], the EC50 came out at 12 nM.

Consider `O=C(CC(c1ccc(F)cc1)c1ccc(F)cc1)Nc1cccc(F)c1CC[C@H]1CN[C@@H]2CCCS(=O)(=O)N1C2`, for which the EC50 in experiment [1] was 21 nM.

Consider `N[C@H](C(=O)Nc1cncc(F)c1CC[C@@H]1CN[C@H](COC(=O)NCC(F)(F)F)CO1)[C@@H](c1ccc(Cl)cc1)c1cc(F)cc(F)c1`, for which half-maximal inhibition against Protease (IC50) required 0.7 nM. In addition, the EC50 in experiment [1] came out at 27 nM.

`C[C@@H]1CNC[C@H](CCc2c(F)cccc2NC(=O)CC(c2ccc(F)cc2)c2ccc(F)cc2)N1S(=O)(=O)c1ccccc1`: in experiment [1], the EC50 was determined as 70 nM.
